Consider 2 compounds from paper PMC8227856, “Antibacterial Activity of a Promising Antibacterial Agent: 22-(4-(2-(4-Nitrophenyl-piperazin-1-yl)-acetyl)-piperazin-1-yl)-22-deoxypleuromutilin” (Molecules, 2021).

Data set [1] has as its system MRSA ATCC 43300. Briefly: Neutropenic mouse thigh infection model. The class given is in vivo, Staphylococcus aureus. Particulars: 20 mg/kg i.v., neutropenic mice. As to the method:
(§1) The mouse thigh infection model was performed as described in the literature with minor modifications. Briefly, female mice had induced neutropenia (neutrophil count ≤ 100/mm^3) by administered intraperitoneally cyclophosphamide on day 4 (150 mg/kg) and day 1 (100 mg/kg) before the experiment. A bacterial suspension of 0.1 mL (MRSA or S. aureus) containing approximately 10^7 CFU/mL microorganism was injected into the posterior thigh of mice to establish infection. Two hours after infection, mice were intravenously injected with NPDM or tiamulin at 20 mg/kg. After 24 h, thighs (six per group) were collected upon euthanasia. Then, thighs were weighed and homogenized with sterile saline. Tissue homogenate was continuously diluted 10-fold and plated on MHA plates for colony counts. SPSS 19 software was used for statistical analysis and t-tests.

For data set [2], the system named is S. aureus ATCC 29213. The data set is described as follows: Neutropenic mouse thigh infection model. The class given is in vivo, Staphylococcus aureus. Particulars: 20 mg/kg i.v., neutropenic mice. The protocol:
as §1

Data set [3] relates to MRSA ATCC 43300. The data set is described as follows: Galleria mellonella infection model. The format is in vivo. The following applies: Staphylococcus aureus, 120 h; Galleria mellonella larvae infected with MRSA, survival over 5 days. As to the method: The survival rate of Galleria mellonella was determined according to the literature with some modifications. Larvae of Galleria mellonella (16 per group) were injected with 10 μL of 10^8 CFU/mL MRSA inoculum into the last right proleg. Two hours after infection, larvae were injected with 10 μL of various doses (17.14, 25.71, 37.14, 57.14, and 85.71 mg/kg) of NPDM or tiamulin (used as reference drug) into the last left proleg. The larvae were maintained at 37 °C. Survival of the larvae was recorded daily for 5 days, and the ED50 was calculated.

In data set [4] the test system is S. aureus AD3 (clinical strain). The data set is described as follows: MBC assay. The format is cell-based. Particulars: Staphylococcus aureus. The protocol:
(§2) Determination of MBCs refers to the minimum concentrations of antibacterial agents required to kill 99.9% of the test microorganisms after 24 h of incubation. After obtaining the MICs value, the 96-well plates were placed at 37 °C and incubated for 24 h. One hundred microliter aliquots of the bacterial suspensions were taken from the wells without visible bacterial growth and then plated onto MHA plates. […] The MBC assay was conducted at least in triplicate.

Data set [5] concerns S. aureus 144 (clinical strain). Briefly: MBC assay. The class given is cell-based. Particulars: Staphylococcus aureus. As to the method:
as §2

The subject of data set [6] is S. aureus ATCC 29213. Briefly: MBC assay. The class given is cell-based. The following applies: Staphylococcus aureus, ATCC29213. As to the method:
as §2

For data set [7], the system named is BRL-3A cells. Briefly: Cytotoxicity, MTT assay. The class given is cell-based. The following applies: Rattus norvegicus; BRL-3A cells, MTT, 16 h incubation; read-out: 50% inhibition concentration (IC50), cell viability. As to the method: The cytotoxicity of NPDM was evaluated by the MTT assay as previously reported. Briefly, the medium containing 1 × 10^5 BRL-3A cells per 1 mL was seeded into a 96-well plate at 100 μL per well. After incubation for 48 h, media were replaced with 100 μL of serial dilutions of test compounds and incubated for 16 h. The absorbance (A) was measured at 490 nm by an automatic microplate reader (BIO-TEK Instrument Inc., Winooski, VT, USA). The cell viability was calculated according to Equation (1):(1) Cell viability (%) = (Asimple−Anegative)/(Apositive−Anegative)×100%
A graph was constructed by plotting the inhibition percentage versus various concentrations of NPDM and tiamulin, from which the IC50 of NPDM or tiamulin was calculated. The measurement was repeated in triplicate.

Data set [8] has as its system MRSA ATCC 43300. The data set is described as follows: MBC assay. The class given is cell-based, Staphylococcus aureus. Particulars: Staphylococcus aureus; MRSA ATCC 43300. The protocol: as §2
Data set [9] concerns MRSA ATCC 43300. Briefly: Post-antibiotic effect (PAE) assay. The class given is cell-based, Staphylococcus aureus. The protocol:
The PAE was carried out as described in the literature. The MRSA was diluted to 10^6 CFU/mL in MHB. The NPDM or tiamulin was added into the bacteria solution at the final concentrations of 2 × MIC and 4 × MIC. Then all tubes were incubated at 37 °C for 1 h or 2 h. Each of the above inoculums was diluted 1000-fold with pre-warmed MHB to remove the test compounds and placed in a water bath at 37 °C immediately. One hundred microliters of suspension were taken from each culture, diluted 10-fold in sterile saline, and inoculated on MHA plates at 0, 1, 2, 4, and 6 h after inoculation. The total number comprising the colonies was counted after incubation at 37 °C for 20 h. The PAE was calculated referring to published methods. The experiment was performed in triplicate.

Data set [10] relates to MRSA ATCC 43300. Briefly: Time-kill assay. The class given is cell-based, Staphylococcus aureus. The protocol:
(§3) The MRSA and S. aureus in the logarithmic phase were diluted to 10^6 CFU/mL with MHB. Then diverse concentrations of NPDM or tiamulin were added to the bacteria solution reaching the final concentration of 1 × MIC, 2 × MIC, 4 × MIC, and 8 × MIC, respectively. All bacterial inoculums were cultured at 37 °C with shaking. A total of 100 μL samples were taken from the subcultures at 0, 3, 6, 9, and 24 h, respectively, and continuously diluted 10-fold in sterile saline; then, 25 μL diluent was plated on the MHA plate. All plates were placed at 37 °C for 24 h. The total number of colonies on the plate was counted, and the results were expressed as log (CFU/mL).

The subject of data set [11] is S. aureus ATCC 29213. The data set is described as follows: Time-kill assay. The format is cell-based, Staphylococcus aureus. As to the method: as §3
Data set [12] deals with MRSA ATCC 43300. The data set is described as follows: MIC, broth dilution micro-method. The class given is cell-based. The following applies: Staphylococcus aureus, 24 h, MHB. The protocol:
(§4) The MICs of NPDM against MRSA were determined by the broth dilution micro-method. Briefly, the stock solution of NPDM and the reference drug tiamulin were diluted by a two-fold serial dilution method with MHB in a 96-well plate to provide concentration ranges of 16~0.032 μg/mL. Then 100 μL of bacterial suspensions in log phase were diluted to 10^6 CFU/mL with MHB and were added to each well to make the final concentrations of the test compounds ranging from 8 to 0.016 μg/mL. The bacterial suspension (no drugs but solvent) was used as the positive control and MHB (no cultures) was used as the negative control. […] The MICs assay was carried out in triplicate.
For orientation: Broth dilution looks for growth in wells or tubes with falling amounts of substance.

Data set [13] concerns S. aureus AD3 (clinical strain). The data set is described as follows: MIC, broth dilution micro-method. The format is cell-based. Particulars: Staphylococcus aureus, 24 h, MHB. As to the method:
as §4

The test system of data set [14] is S. aureus 144 (clinical strain). The data set is described as follows: MIC, broth dilution micro-method. The format is cell-based. Particulars: Staphylococcus aureus, 24 h, MHB. The protocol:
as §4

The subject of data set [15] is S. aureus ATCC 29213. Briefly: MIC, broth dilution micro-method. The format is cell-based. The following applies: Staphylococcus aureus, ATCC29213, 24 h, MHB. The protocol: as §4
Details of data set [16]: method as in PMID 25812151. The following applies: mice, oral acute toxicity; cited from earlier work.

Structures are written as SMILES. Converted amounts (≈) assume the structure as drawn.

In the case of `C=C[C@]1(C)C[C@@H](OC(=O)CSCCN(CC)CC)[C@]2(C)[C@H](C)CC[C@]3(CCC(=O)[C@H]32)[C@@H](C)[C@@H]1O` [Tiamulin, reference compound], the “Reduction of mean MRSA counts in thighs vs untreated group” value in [1] (24 h) was ~ 1.15 log CFU/mL. Besides, the “Average amount of MRSA inoculum in thighs” value in data set [1] (24 h after treatment) is on record as “(2.64 ± 1.95) × 10^8 CFU”. Also, in data set [2] (24 h after treatment), the “Average amount of S. aureus inoculum in thighs” value was “(2.00 ± 1.21) × 10^8 CFU”. Besides, in data set [2] (S. aureus, 24 h), the “Reduction of mean bacterial counts in thighs vs untreated group” value was ~ 0.68 log CFU/mL. The 50% effect level in data set [3] (ED50) was put at a dose of 75.7 mg/kg. The MBC (as a rule, the smallest concentration meeting the test's criterion for killing) was determined as 2 µg/mL (≈ 4.05 µM) in data set [4], 2 µg/mL (≈ 4.05 µM) in data set [5], 0.5 µg/mL (≈ 1.01 µM) in [6] and 0.5 µg/mL (≈ 1.01 µM) in data set [8]. Moreover, the IC50 in data set [7] was 13.1 µg/mL (≈ 26.5 µM). For the same compound, the PAE in [9] (2 × MIC, exposure for 1 h) turned out to be 1.53 h; in data set [9] (2 × MIC, exposure for 2 h), 1.65 h; in data set [9] (4 × MIC, exposure for 1 h), 1.90 h; in [9] (4 × MIC, exposure for 2 h) it was 2.04 h. Besides, the “Time-kill activity at 2 × MIC” value in [10] (2 × MIC) is given as “bacteriostatic activity with a rebound growth”. Also, the “Concentration showing bactericidal activity (≥3 log10 CFU/mL decrease)” value in data set [10] (after incubation for 24 h) is given as at least 4 × MIC. Moreover, the “Concentration showing bacteriostatic effect” value in data set [11] is at least 2 × MIC. Further, the MIC in data set [12], in data set [13], in [14] and in data set [15] was 0.5 µg/mL (≈ 1.01 µM) in each case.

Turning to `C=C[C@]1(C)C[C@@H](OC(=O)CSc2nnc(N)s2)[C@]2(C)[C@H](C)CC[C@]3(CCC(=O)[C@H]32)[C@@H](C)[C@@H]1O` [ATTM, 14-O-[(2-Amino-1,3,4-thiadiazol-5-yl)Thioacetyl] Mutilin], in data set [16], the LD50 (commonly the dose expected to kill half of the subjects tested) is on record as 2304.4 mg/kg.
